Results reported in patent US20220016092A1, “METHODS FOR TREATING SYMPTOMS AND DISORDERS ASSOCIATED WITH LYSOSOMAL STORAGE DISEASES” (GENZYME CORPORATION, priority 2019, published 2022).

How the values were obtained:
[1] = test system: GM3 expression in B16 mouse melanoma cells; test: GM3 fluorescent-linked immunosorbent assay (FLISA), B16 cells; type: cell-based; conditions: 48 hours
Description: (§1) Inhibition of glucosylceramide synthase activity can be measured with one or more assays. A first assay is a microsomal assay that directly measures the conversion of ceramide to glucosylceramide by HPLC. Microsomes are a source of glucosylceramide synthase activity in the microsomal assay. A second assay is a cell based, phenotypic assay that monitors cell surface expression of the downstream lipid GM3 by antibody mediated immunofluorescence. Specific protocols are provided below.
(§2) This is a phenotypic assay that measures GM3 expression in B16 mouse melanoma or C32 human melanoma cells following treatment with test compounds. Cell surface GM3 expression is determined by antibody mediated fluorescence.
(§3) Compounds are diluted in media and plated in 384 well plates in DMSO. B16 and C32 cells are assayed at densities of 20,000 cells/ml and 62,500 cells/ml, respectively, per well. Each titration curve contains 10 points that are assayed in duplicate on each test run. The plates are incubated for 48 hours at 37° C., 5% CO2, and are then washed once with TBS. Anti-GM3 antibody is added to each well and the plates are then incubated for an additional one hour at room temperature. Plates are subsequently washed twice and incubated for an additional hour with the labeled secondary antibody. Following the final incubation, the plates are washed twice and the fluorescence at λex=D640/20 nm and λem=657 nm is detected on a fluorescent reader.
(§4) The results of the microsomal assays are expressed as “GCS IC50”, which represents the concentration of the compound causing 50% inhibition of glucosylceramide synthase activity. The results of the cell-based assays are expressed as “GM3 B16 IC50” or “GM3 C32 IC50” for the B16 assay and the C32 assay, respectively. These values represent the concentration of the compound causing 50% inhibition of GM3 expression on the cell surface.

[2] = test system: GM3 expression in C32 human melanoma cells; test: GM3 fluorescent-linked immunosorbent assay (FLISA), C32 cells; type: cell-based; conditions: 48 hours
Description: as §1, §2, §3, §4

[3] = test system: GL-3, lyso-GL-3, GL-1 and GM3; conditions: Fabry patients of the historical phase 3 trial (Eng et al. 2001), matched; after 156 weeks; cited from earlier work

Molecule | IC50 [1] [nM] | IC50 [2] [nM] | Plasma GL-3 levels [3] [µg/mL]
COCCOc1ccc(-c2ccc(C(C)(C)NC(=O)OC3CN4CCC3CC4)nc2)cc1 (stereo not drawn) [Compound 21, Quinuclidin-3-yl 2-(5-(4-(2-methoxyethoxy)phenyl)pyridin-2-yl)propan-2-ylcarbamate] | 266 | 11.1 | –
COCCOc1ccc(-c2ccc(C(C)(C)NC(=O)O[C@@H]3CN4CCC3CC4)cc2)cc1 [Compound 3, (S)-quinuclidin-3-yl(2-(4′-(2-methoxyethoxy)-[1,1′-biphenyl]-4-yl)propan-2-yl)carbamate] | 43.7 | 1.31 | –
COCCOc1ccc(-c2cccc(C(C)(C)NC(=O)OC3CN4CCC3CC4)c2)cc1 (stereo not drawn) [Compound 15, Quinuclidin-3-yl(2-(4′-(2-methoxyethoxy)-[1,1′-biphenyl]-3-yl)propan-2-yl)carbamate] | 29.5 | 4.9 | –
COCCCOc1ccc(-c2nc(C(C)(C)NC(=O)OC3CN4CCC3CC4)cs2)cc1 (stereo not drawn) [Compound 19, Quinuclidin-3-yl(2-(2-(4-(3-methoxypropoxy)phenyl)thiazol-4-yl)propan-2-yl)carbamate] | 197 | 42.6 | –
CC(C)(NC(=O)OC1CN2CCC1CC2)c1ccc(-c2ccc(OCCCC#N)cc2)cc1 (stereo not drawn) [Compound 22, Quinuclidin-3-yl(2-(4′-(3-cyanopropoxy)-[1,1′-biphenyl]-4-yl)propan-2-yl)carbamate] | 86.5 | 3.2 | –
CC(C)(NC(=O)OC1CN2CCC1CC2)c1ccc(-c2ccc(CCO)cc2)cc1 (stereo not drawn) [Compound 18, Quinuclidin-3-yl(2-(4′-(2-hydroxyethyl)-[1,1′-biphenyl]-4-yl)propan-2-yl)carbamate] | 656 | 22.3 | –
CC(C)(NC(=O)OC1CN2CCC1CC2)c1cccc(-c2ccc(F)cc2)c1 (stereo not drawn) [Compound 1, 1-azabicyclo[2.2.2]oct-3-yl[2-(4′-fluorobiphenyl-3-yl)propan-2-yl]carbamate] | 15.6 | 2.1 | –
CC(C)(NC(=O)OC1CN2CCC1CC2)c1cccc(-c2ccccc2)c1 (stereo not drawn) [Compound 4, 1-azabicyclo[2.2.2]oct-3-yl[2-(biphenyl-3-yl)propan-2-yl]carbamate] | 11.6 | 0.8 | –
COCCOc1ccc(-c2ccc(C(C)(C)NC(=O)OC3CN4CCC3CC4)cc2)cc1 (stereo not drawn) [Compound 13, Quinuclidin-3-yl(2-(4′-(2-methoxyethoxy)-[1,1′-biphenyl]-4-yl)propan-2-yl)carbamate] | 38.6 | 0.7 | –
O=C(NC1(c2ccc(-c3ccc(F)cc3)cc2)CC1)O[C@@H]1CN2CCC1CC2 [Compound 7, (S)-quinuclidin-3-yl 1-(4′-fluorobiphenyl-4-yl)cyclopropylcarbamate] | 8.1 | 0.4 | –
COc1ccc(-c2ccc(C3(NC(=O)OC4CN5CCC4CC5)CC3)cc2)cc1 (stereo not drawn) [Compound 9, 1-azabicyclo[2.2.2]oct-3-yl[1-(4′-methoxybiphenyl-4-yl)cyclopropyl]carbamate] | 16.8 | 0.4 | –
COCCOc1cccc(-c2ccc(C(C)(C)NC(=O)O[C@@H]3CN4CCC3CC4)cc2)c1 [Compound 14, (S)-quinuclidin-3-yl(2-(3′-(2-methoxyethoxy)-[1,1′-biphenyl]-4-yl)propan-2-yl)carbamate] | 110 | 5.3 | –
COCCOc1ccc(-c2nc(C(C)(C)NC(=O)OC3CN4CCC3CC4)cs2)cc1 (stereo not drawn) [Compound 20, Quinuclidin-3-yl(2-(2-(4-(2-methoxyethoxy)phenyl)thiazol-4-yl)propan-2-yl)carbamate] | 106 | 19.8 | –
CC(C)(NC(=O)O[C@@H]1CN2CCC1CC2)c1cc(-c2ccc(F)cc2)ns1 [Compound 11, (S)-quinuclidin-3-yl 2-(3-(4-fluorophenyl)isothiazol-5-yl)propan-2-ylcarbamate] | 81.9 | 1.8 | –
CC(C)(NC(=O)OC1CN2CCC1CC2)c1ccc(-c2ccc(OCC#N)cc2)cc1 (stereo not drawn) [Compound 23] | 47.7 | 0.8 | –
COCCCOc1ccc(-c2ccc(C(C)(C)NC(=O)OC3CN4CCC3CC4)cc2)cc1 (stereo not drawn) [Compound 16, Quinuclidin-3-yl(2-(4′-(3-methoxypropoxy)-[1,1′-biphenyl]-4-yl)propan-2-yl)carbamate] | 66.6 | 1.6 | –
O=C(NC1(c2ccc(-c3ccc(F)cc3F)cc2)CC1)O[C@@H]1CN2CCC1CC2 [Compound 8, (S)-1-azabicyclo[2.2.2]oct-3-yl[1-(2′,4′-difluorobiphenyl-4-yl)cyclopropyl]carbamate] | 7.5 | 0.4 | –
CC(C)(NC(=O)O[C@@H]1CN2CCC1CC2)c1ccc(-c2ccccc2)cc1 [Compound 5, (S)-quinuclidin-3-yl 2-(biphenyl-4-yl)propan-2-ylcarbamate] | 19.3 | 0.3 | –
O=C(NC1(c2ccc(-c3ccccc3)cc2)CC1)OC1CN2CCC1CC2 (stereo not drawn) [Compound 6, Quinuclidin-3-yl 1-(biphenyl-4-yl)cyclopropylcarbamate] | 18.1 | 0.6 | –
CC(C)(NC(=O)O[C@@H]1CN2CCC1CC2)c1nc(-c2ccc(F)cc2)cs1 [Compound 12, (S)-quinuclidin-3-yl 2-(4-(4-fluorophenyl)thiazol-2-yl)propan-2-ylcarbamate] | 87.8 | 3.7 | –
CC(C)(NC(=O)OC1CN2CCC1CC2)c1ccc(-c2ccc(CO)cc2)cc1 (stereo not drawn) [Compound 17, Quinuclidin-3-yl(2-(4′-(hydroxymethyl)-[1,1′-biphenyl]-4-yl)propan-2-yl)carbamate] | 879 | 21.6 | –
CC(C)(NC(=O)OC1CN2CCC1CC2)c1csc(-c2ccc(F)cc2)c1 (stereo not drawn) [Compound 10, Quinuclidin-3-yl 2-(5-(4-fluorophenyl)thiophen-3-yl)propan-2-ylcarbamate] | 21.3 | 2.2 | –
agalsidase beta: historical control arm: patients treated with agalsidase beta (Fabrazyme) in a previously completed placebo-controlled phase 3 trial (protein, UniProt P06280 32-429, looked up, agalsidase beta, historical control arm: patients treated with agalsidase beta (Fabrazyme) in a previously completed placebo-controlled phase 3 trial) Alpha-galactosidase A: LDNGLARTPTMGWLHWERFMCNLDCQEEPDSCISEKLFMEMAELMVSEGWKDAGYEYLCIDDCWMAPQRDSEGRLQADPQRFPHGIRQLANYVHSKGLKLGIYADVGNKTCAGFPGSFGYYDIDAQTFADWGVDLLKFDGCYCDSLENLADGYKHMSLALNRTGRSIVYSCEWPLYMWPFQKPNYTEIRQYCNHWRNFADIDDSWKSIKSILDWTSFNQERIVDVAGPGGWNDPDMLVIGNFGLSWNQQVTQMALWAIMAAPLFMSNDLRHISPQAKALLQDKDVIAINQDPLGKQGYQLRQGDNFEVWERPLSGLAWAVAMINRQEIGGPRSYTIAVASLGKGVACNPACFITQLLPVKRKLGFYEWTSRLRSHINPTGTVLLQLENTMQMSLKDLL | – | – | 4.44
